Laboratory results: patent publication US11510983B2 (priority 2013, dated 2022)

Tests used:
[1] = test system: A/California/7/2009 (H1N1); set-up: species or system BALB/c mice; details: mouse, in vivo
[2] = test system: A/California/7/2009 (H1N1); set-up: species or system BALB/c mice; details: mouse, in vivo; remark: listed apart in the source
[3] = pig, in vivo
[4] = set-up: species or system mice; details: mouse, in vivo

Molecule | elevation of IgG2a production [1] [fold] | type of immune response by IgG2a/IgG1 ratio [1] | time after which HAI titer started to decline to levels of non-adjuvanted flu vaccine [2] [months] | skin response at the injection site [3] | raise of specific antibody titers in the presence vs. absence of laser pre-treatment [4] [folds]
CC(C)Cn1cnc2c(N)nc3ccccc3c21 [IMIQ, 1-(2-Methylpropyl)-1H-imidazo[4,5-c]quinolin-4-amine] | 5 | Th1-biased immune response | > 3 | Diminished skin irritation | 
OVA: protein model antigen ovalbumin |  |  |  |  | 6
